What follows are molecules tested against T1, full length human recombinant glucocorticoid receptor (Homo sapiens, UniProt P04150) (assay: Glucocorticoid Receptor Binding Assay (fluorescence polarization competitor assay, Fluormone GS Far Red tracer)).
T1 construct: partially purified full length human recombinant glucocorticoid receptor; purchased Panvera/Invitrogen PV4302
T1 sequence (P04150 1-777): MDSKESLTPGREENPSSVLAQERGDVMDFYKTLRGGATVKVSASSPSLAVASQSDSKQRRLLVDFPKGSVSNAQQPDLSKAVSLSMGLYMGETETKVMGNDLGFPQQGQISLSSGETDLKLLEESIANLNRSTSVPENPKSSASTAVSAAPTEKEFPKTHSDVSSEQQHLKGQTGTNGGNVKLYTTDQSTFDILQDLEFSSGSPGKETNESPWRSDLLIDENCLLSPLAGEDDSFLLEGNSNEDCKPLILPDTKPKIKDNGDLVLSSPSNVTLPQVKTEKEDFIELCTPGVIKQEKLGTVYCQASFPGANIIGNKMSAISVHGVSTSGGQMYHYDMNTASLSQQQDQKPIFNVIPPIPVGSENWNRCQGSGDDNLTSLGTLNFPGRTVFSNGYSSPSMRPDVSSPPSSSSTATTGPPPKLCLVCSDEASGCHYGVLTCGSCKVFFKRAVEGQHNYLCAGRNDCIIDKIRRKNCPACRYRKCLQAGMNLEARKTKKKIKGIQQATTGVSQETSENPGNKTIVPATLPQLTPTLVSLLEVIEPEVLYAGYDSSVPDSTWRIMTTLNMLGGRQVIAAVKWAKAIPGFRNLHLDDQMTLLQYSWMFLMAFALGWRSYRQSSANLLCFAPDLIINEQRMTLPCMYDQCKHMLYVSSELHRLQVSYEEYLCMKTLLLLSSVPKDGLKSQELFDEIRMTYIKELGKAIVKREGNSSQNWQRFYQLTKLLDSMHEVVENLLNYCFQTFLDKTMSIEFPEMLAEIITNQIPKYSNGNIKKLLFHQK
How it was run: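 Partially purified full-length recombinant human GR with a stabilizing coactivator peptide was incubated with Fluormone GS Far Red tracer and serially diluted compound for 3 h at 22 °C in the dark, pH 7.4. Fluorescence polarization was read at 610-660 nm. IC50 came from sigmoidal fitting, and Ki from Cheng-Prusoff.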
COC(=O)c1cnc(Oc2ccc([C@H](C)[C@](O)(c3cc(C)c(=O)n(C)c3)C(F)(F)F)c(Cl)c2)nc1C(F)(F)F (stereo in doubt) [Example 242, 2-{3-Chloro-4-[2-(1,5-dimethyl-6-oxo-1,6-dihydro-pyridin-3-yl)-3,3,3-trifluoro-2-hydroxy-1-methyl-propyl]-phenoxy}-4-trifluoromethyl-pyrimidine-5-carboxylic acid methyl ester] was tested, and the Ki was 2.7 nM. For Cc1cc([C@@](O)([C@@H](C)c2ccc(Oc3ncc(C(=O)O)c(C(F)(F)F)n3)cc2Cl)C(F)(F)F)cn(C)c1=O (stereo in doubt) [Example 243, 2-{3-Chloro-4-[2-(1,5-dimethyl-6-oxo-1,6-dihydro-pyridin-3-yl)-3,3,3-trifluoro-2-hydroxy-1-methyl-propyl]-phenoxy}-4-trifluoromethyl-pyrimidine-5-carboxylic acid], the Ki was 1.8 nM. COC(=O)c1cnc(Oc2ccc([C@H](C)[C@](O)(c3cc(C)c(=O)n(C)c3)C(F)(F)F)c(Cl)c2)c(Cl)c1 (stereo in doubt) [Example 250, 5-Chloro-6-{3-chloro-4-[2-(1,5-dimethyl-6-oxo-1,6-dihydro-pyridin-3-yl)-3,3,3-trifluoro-2-hydroxy-1-methyl-propyl]-phenoxy}-nicotinic acid methyl ester] showed a Ki of 3 nM. Cc1cc([C@@](O)([C@@H](C)c2ccc(Oc3ncc(C(=O)O)cc3Cl)cc2Cl)C(F)(F)F)cn(C)c1=O (stereo in doubt) [Example 251, 5-Chloro-6-{3-chloro-4-[2-(1,5-dimethyl-6-oxo-1,6-dihydro-pyridin-3-yl)-3,3,3-trifluoro-2-hydroxy-1-methyl-propyl]-phenoxy}-nicotinic acid] gave a Ki of 0.5 nM. Work on Cc1cc([C@@](O)([C@@H](C)c2ccc(Oc3ncc(C(=O)O)cn3)cc2Cl)C(F)(F)F)cn(C)c1=O (stereo in doubt) [Example 254, 2-{3-Chloro-4-[2-(1,5-dimethyl-6-oxo-1,6-dihydro-pyridin-3-yl)-3,3,3-trifluoro-2-hydroxy-1-methyl-propyl]-phenoxy}-pyrimidine-5-carboxylic acid] yielded a Ki of 9.5 nM. With Cc1nc(Oc2ccc([C@H](C)[C@](O)(c3cc(C)c(=O)n(C)c3)C(F)(F)F)c(Cl)c2)ccc1C(=O)O (stereo in doubt) [Example 255, 6-{3-Chloro-4-[2-(1,5-dimethyl-6-oxo-1,6-dihydro-pyridin-3-yl)-3,3,3-trifluoro-2-hydroxy-1-methyl-propyl]-phenoxy}-2-methyl-nicotinic acid] the Ki was 3.6 nM. Cc1cnc(C(O)(C(C)c2ccc(OCc3ccc(C(=O)O)cc3)cc2Cl)C(F)(F)F)cn1 (centres unmarked) [Example 2, 4-{3-Chloro-4-[3,3,3-trifluoro-2-hydroxy-1-methyl-2-(5-methyl-pyrazin-2-yl)-propyl]-phenoxymethyl}-benzoic acid] gave a Ki of 21.5 nM. With COC(=O)c1cccc(COc2ccc(C(C)C(O)(c3cnc(C)cn3)C(F)(F)F)c(Cl)c2)c1 (centres unmarked) [Example 3, 3-{3-Chloro-4-[3,3,3-trifluoro-2-hydroxy-1-methyl-2-(5-methyl-pyrazin-2-yl)-propyl]-phenoxymethyl}-benzoic acid methyl ester] the Ki was 52.7 nM. With Cc1cnc(C(O)(C(C)c2ccc(OCc3cccc(C(=O)O)c3)cc2Cl)C(F)(F)F)cn1 (centres unmarked) [Example 4, 3-{3-Chloro-4-[3,3,3-trifluoro-2-hydroxy-1-methyl-2-(5-methyl-pyrazin-2-yl)-propyl]-phenoxymethyl}-benzoic acid] the Ki was 175 nM. For CCOC(=O)c1ccc(COc2ccc([C@@H](C)[C@@](O)(c3cnc(C)cn3)C(F)(F)F)c(Cl)c2)cc1 [Example 5, 4-{3-Chloro-4-[(1R,2R)-3,3,3-trifluoro-2-hydroxy-1-methyl-2-(5-methyl-pyrazin-2-yl)-propyl]-phenoxymethyl}-benzoic acid ethyl ester], the Ki was 418 nM. With Cc1cnc([C@](O)([C@H](C)c2ccc(OCc3ccc(C(=O)O)cc3)cc2Cl)C(F)(F)F)cn1 [Example 6, 4-{3-Chloro-4-[(1R,2R)-3,3,3-trifluoro-2-hydroxy-1-methyl-2-(5-methyl-pyrazin-2-yl)-propyl]-phenoxymethyl}-benzoic acid] the Ki was 8.2 nM. With COC(=O)c1ccc(OCCOc2ccc(C(C)C(O)(c3cnc(C)cn3)C(F)(F)F)c(Cl)c2)cc1 (centres unmarked) [Example 9, 4-(2-{3-Chloro-4-[3,3,3-trifluoro-2-hydroxy-1-methyl-2-(5-methyl-pyrazin-2-yl)-propyl]-phenoxy}-ethoxy)-benzoic acid methyl ester] the Ki was 119 nM. With Cc1cnc(C(O)(C(C)c2ccc(OCCOc3ccc(C(=O)O)cc3)cc2Cl)C(F)(F)F)cn1 (centres unmarked) [Example 10, 4-(2-{3-Chloro-4-[3,3,3-trifluoro-2-hydroxy-1-methyl-2-(5-methyl-pyrazin-2-yl)-propyl]-phenoxy}-ethoxy)-benzoic acid] the Ki was 307 nM. Cc1cc(C(O)(C(C)c2ccc(Oc3ccc(C(=O)O)cc3)cc2Cl)C(F)(F)F)ccn1 (centres unmarked) [Example 58, 4-{3-Chloro-4-[3,3,3-trifluoro-2-hydroxy-1-methyl-2-(2-methyl-pyridin-4-yl)-propyl]-phenoxy}-benzoic acid] gave a Ki of 2.4 nM. With Cc1cc(C(O)(C(C)c2ccc(Oc3cccc(C(=O)O)c3)cc2Cl)C(F)(F)F)ccn1 (centres unmarked) [Example 59, 3-{3-Chloro-4-[3,3,3-trifluoro-2-hydroxy-1-methyl-2-(2-methyl-pyridin-4-yl)-propyl]-phenoxy}-benzoic acid] the Ki was 11.2 nM. Work on Cc1cc(C(O)(C(C)c2ccc(-c3cccc(C(=O)O)c3)cc2Cl)C(F)(F)F)ccn1 (centres unmarked) [Example 61, 3′-Chloro-4′-[3,3,3-trifluoro-2-hydroxy-1-methyl-2-(2-methyl-pyridin-4-yl)-propyl]-biphenyl-3-carboxylic acid] yielded a Ki of 4.9 nM. In the case of Cc1cc(C(O)(C(C)c2ccc(-c3ccc(C(=O)O)cn3)cc2Cl)C(F)(F)F)ccn1 (centres unmarked) [Example 62, 6-{3-Chloro-4-[3,3,3-trifluoro-2-hydroxy-1-methyl-2-(2-methyl-pyridin-4-yl)-propyl]-phenyl}-nicotinic acid], the Ki is reported as 335 nM. In the case of Cc1cc(C(O)(C(C)c2ccc(-c3cccc(CC(=O)O)c3)cc2Cl)C(F)(F)F)ccn1 (centres unmarked) [Example 63, {3′-Chloro-4′-[3,3,3-trifluoro-2-hydroxy-1-methyl-2-(2-methyl-pyridin-4-yl)-propyl]-biphenyl-3-yl}-acetic acid], the Ki is reported as 6.4 nM. Cc1cc(C(O)(C(C)c2ccc(-c3ccc(CC(=O)O)cc3)cc2Cl)C(F)(F)F)ccn1 (centres unmarked) [Example 64, {3′-Chloro-4′-[3,3,3-trifluoro-2-hydroxy-1-methyl-2-(2-methyl-pyridin-4-yl)-propyl]-biphenyl-4-yl}-acetic acid] gave a Ki of 66.3 nM. For Cc1cc(C(O)(C(C)c2ccc(-c3ccc(C(=O)O)nc3)cc2Cl)C(F)(F)F)ccn1 (centres unmarked) [Example 65, 5-{3-Chloro-4-[3,3,3-trifluoro-2-hydroxy-1-methyl-2-(2-methyl-pyridin-4-yl)-propyl]-phenyl}-pyridine-2-carboxylic acid], the Ki was 214 nM. Molecule Cc1cc(C(O)(C(C)c2ccc(/C=C/c3ccc(C(=O)O)cc3)cc2Cl)C(F)(F)F)ccn1 (centres unmarked) [Example 66, 4-((E)-2-{3-Chloro-4-[3,3,3-trifluoro-2-hydroxy-1-methyl-2-(2-methyl-pyridin-4-yl)-propyl]-phenyl}-vinyl)-benzoic acid] has a Ki of 4.4 nM. Cc1cc(C(O)(C(C)c2ccc(CCc3ccc(C(=O)O)cc3)cc2Cl)C(F)(F)F)ccn1 (centres unmarked) [Example 67, 4-(2-{3-Chloro-4-[3,3,3-trifluoro-2-hydroxy-1-methyl-2-(2-methyl-pyridin-4-yl)-propyl]-phenyl}-ethyl)-benzoic acid] was tested, and the Ki was 24.4 nM. CC(c1ccc(NC(=O)c2ccc(C(=O)O)cc2)cc1Cl)C(O)(c1ccnc(Cl)c1)C(F)(F)F (centres unmarked) [Example 69, N-{3-Chloro-4-[2-(2-chloro-pyridin-4-yl)-3,3,3-trifluoro-2-hydroxy-1-methyl-propyl]-phenyl}-terephthalamic acid] showed a Ki of 116 nM. Molecule CC(c1ccc(NC(=O)c2cccc(C(=O)O)c2)cc1Cl)C(O)(c1ccnc(Cl)c1)C(F)(F)F (centres unmarked) [Example 70, N-{3-Chloro-4-[2-(2-chloro-pyridin-4-yl)-3,3,3-trifluoro-2-hydroxy-1-methyl-propyl]-phenyl}-isophthalamic acid] has a Ki of 315 nM. For CC(c1ccc(NC(=O)c2cccc(CC(=O)O)c2)cc1Cl)C(O)(c1ccnc(Cl)c1)C(F)(F)F (centres unmarked) [Example 73, (3-{3-Chloro-4-[2-(2-chloro-pyridin-4-yl)-3,3,3-trifluoro-2-hydroxy-1-methyl-propyl]-phenylcarbamoyl}-phenyl)-acetic acid], the Ki was 93.5 nM. CC(c1ccc(NS(=O)(=O)c2ccc(C(=O)O)cc2)cc1Cl)C(O)(c1ccnc(Cl)c1)C(F)(F)F (centres unmarked) [Example 76, 4-{3-Chloro-4-[2-(2-chloro-pyridin-4-yl)-3,3,3-trifluoro-2-hydroxy-1-methyl-propyl]-phenylsulfamoyl}-benzoic acid] was tested, and the Ki was 178 nM.
